From BindingDB's records for doi:10.7270/Q2JQ0ZDS (Sanford-Burnham Center for Chemical Genomics, 2009)
“And” between values parts separate entries of the source, which are not always exact repeats. Equal entries are not always repeated. Structures can show the parent of a compound that is named as a salt.

Molecular target: Intestinal-type alkaline phosphatase (Homo sapiens, UniProt P09923)
Experiment: human IAP enzyme inhibitors, dose response, biochemical, luminescence (AID 1017)

Intestinal-type alkaline phosphatase, sequence (P09923 whole entry, looked up): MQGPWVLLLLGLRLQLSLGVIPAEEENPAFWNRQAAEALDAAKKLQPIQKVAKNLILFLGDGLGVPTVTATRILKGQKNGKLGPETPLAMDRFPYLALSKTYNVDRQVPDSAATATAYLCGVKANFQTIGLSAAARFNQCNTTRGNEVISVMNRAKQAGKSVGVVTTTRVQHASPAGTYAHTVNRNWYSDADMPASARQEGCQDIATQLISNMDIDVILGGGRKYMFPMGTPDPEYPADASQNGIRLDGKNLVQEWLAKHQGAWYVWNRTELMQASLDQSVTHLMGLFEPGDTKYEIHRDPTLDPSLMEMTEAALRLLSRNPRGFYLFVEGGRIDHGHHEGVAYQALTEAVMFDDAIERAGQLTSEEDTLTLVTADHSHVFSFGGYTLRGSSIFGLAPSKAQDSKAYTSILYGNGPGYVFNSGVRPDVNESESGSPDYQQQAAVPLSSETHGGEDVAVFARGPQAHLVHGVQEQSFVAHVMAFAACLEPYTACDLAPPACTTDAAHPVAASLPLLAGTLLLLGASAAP

Cn1c(SCC(=O)c2ccc(O)c(O)c2)nnc1-c1ccccc1 [1-(3,4-dihydroxyphenyl)-2-(4-methyl-5-phenyl-4H-1,2,4-triazol-3-ylthio)ethanone]
IC50: > 100 µM

C=CCn1c(SCC(=O)c2ccc(O)c(O)c2)nnc1-c1ccccc1OC [1-(3,4-dihydroxyphenyl)-2-[[5-(2-methoxyphenyl)-4-prop-2-enyl-1,2,4-triazol-3-yl]sulfanyl]ethanone]
IC50: > 6.25 µM and 20.7 µM

Cn1nc(C(=O)O)cc1-c1ccc(F)cc1 [5-(4-fluorophenyl)-1-methyl-3-pyrazolecarboxylic acid]
IC50: > 100 µM

Cc1cc(C)nc(SCC(=O)c2ccc(O)cc2)n1 [2-(4,6-dimethylpyrimidin-2-ylthio)-1-(4-hydroxyphenyl)ethanone]
IC50: > 100 µM

CCOC(=O)c1cc(-c2ccc3c(c2)OCCO3)n[nH]1
IC50: > 100 µM

C=CCn1c(SCC(=O)c2ccc(O)c(O)c2)nnc1-c1cccnc1 [1-(3,4-dihydroxyphenyl)-2-[(4-prop-2-enyl-5-pyridin-3-yl-1,2,4-triazol-3-yl)sulfanyl]ethanone]
IC50: 40.4 µM

COc1ccc(C)cc1S(=O)(=O)Nc1cccnc1 [2-Methoxy-5-methyl-N-(pyridin-3-yl)benzenesulfonamide]
IC50: > 100 µM

C=CCn1c(SCC(=O)c2ccc(O)c(O)c2)nnc1-c1cccc(OC)c1 [1-(3,4-dihydroxyphenyl)-2-[[5-(3-methoxyphenyl)-4-prop-2-enyl-1,2,4-triazol-3-yl]sulfanyl]ethanone]
IC50: 13.1 µM

Cc1ccc(-n2nnnc2SCC(=O)c2ccc(O)c(O)c2)cc1 [1-(3,4-dihydroxyphenyl)-2-[1-(4-methylphenyl)tetrazol-5-yl]sulfanylethanone]
IC50: 3.36 µM

O=C(CSc1nnc(-c2ccccc2)[nH]1)c1ccc(O)c(O)c1
IC50: 5.32 µM

O=C1c2c(Cl)c(Cl)c(Cl)c(Cl)c2C(=O)N1c1nnc[nH]1 [4,5,6,7-tetrachloro-2-(1H-1,2,4-triazol-5-yl)isoindole-1,3-dione]
IC50: > 10 µM

O=C1c2c(Cl)c(Cl)c(Cl)c(Cl)c2C(=O)N1c1nnc(CCc2ccccc2)[nH]1
IC50: > 100 µM

CCCCOc1ccc(-c2cc(C(=O)OC)[nH]n2)cc1 [methyl 3-(4-butoxyphenyl)-1H-pyrazole-5-carboxylate]
IC50: > 100 µM

COc1ccc2c(c1OC)C(=O)N(c1nnc(SC)[nH]1)C2=O [MLS-0146265.0001]
IC50: > 100 µM

COc1ccc(C(=O)CSc2nc(C)cc(C)n2)cc1 [2-(4,6-dimethylpyrimidin-2-ylthio)-1-(4-methoxyphenyl)ethanone]
IC50: > 100 µM

CCn1c(SCC(=O)c2ccc(O)c(O)c2)nnc1-c1ccccc1 [1-(3,4-Dihydroxy-phenyl)-2-(4-ethyl-5-phenyl-4H-[1,2,4]triazol-3-ylsulfanyl)-ethanone]
IC50 (inactive by the depositor's call): 32.8 µM

Oc1c2c(c(O)n1-c1nnc(Cc3ccccc3)[nH]1)CC=CC2 [MLS000100008]
IC50: 0.539 µM and 0.922 µM

COc1ccc(C)cc1S(=O)(=O)Nc1ccc2ccccc2c1 [2-methoxy-5-methyl-N-(2-naphthalenyl)benzenesulfonamide]
IC50: > 100 µM

Oc1c2c(c(O)n1-c1nnc(-c3ccccc3)[nH]1)CC=CC2 [2-(5-Phenyl-2H-[1,2,4]triazol-3-yl)-3a,4,7,7a-tetrahydro-isoindole-1,3-dione]
IC50: 0.11 µM and 0.157 µM

COC(=O)c1cc(-c2ccc3ccccc3c2)[nH]n1 [MLS-0111546.0001]
IC50: > 100 µM

O=C(CNc1ccncc1)c1ccc(O)c(O)c1 [1-(3,4-dihydroxyphenyl)-2-(4-pyridylamino)ethanone]
IC50: > 100 µM

COC(=O)c1cc(-c2ccc(Br)cc2)n[nH]1
IC50: > 100 µM

Oc1cc(-c2cccc3ccccc23)[nH]n1 [MLS-0067141.0001]
IC50: > 100 µM

COC(=O)c1cc(-c2ccc(C)cc2C)n[nH]1
IC50: > 100 µM

CCn1c(CSc2nc3ccccc3s2)nnc1SCC(=O)c1ccc(O)c(O)c1 [2-[[5-(1,3-benzothiazol-2-ylsulfanylmethyl)-4-ethyl-1,2,4-triazol-3-yl]sulfanyl]-1-(3,4-dihydroxyphenyl)ethanone]
IC50: > 100 µM

O=C1c2ccccc2C(=O)N1c1nncs1 [2-(1,3,4-thiadiazol-2-yl)isoindole-1,3-dione]
IC50: > 100 µM

C=CCn1c(SCC(=O)c2ccc(O)c(O)c2)nnc1-c1ccccc1 [1-(3,4-dihydroxyphenyl)-2-[(5-phenyl-4-prop-2-enyl-1,2,4-triazol-3-yl)sulfanyl]ethanone]
IC50: 10.1 µM

O=C1c2ccccc2C(=O)C1c1nc2ccccc2[nH]1
IC50: > 100 µM

COc1ccc(C)cc1S(=O)(=O)Nc1cnc2ccccc2c1 [2-Methoxy-5-methyl-N-(quinolin-3-yl)benzenesulfonamide]
IC50: > 100 µM

Cc1cc(=O)oc2n[nH]c(-c3ccccc3)c12 [MLS-0013971.0001]
IC50: > 100 µM

COc1ccccc1-c1nc(SCC(=O)c2ccc(O)c(O)c2)n[nH]1 [1-(3,4-dihydroxyphenyl)-2-[[5-(2-methoxyphenyl)-1H-1,2,4-triazol-3-yl]sulfanyl]ethanone]
IC50: > 3.13 µM

CCc1nnc(SCC(=O)c2ccc(O)c(O)c2)[nH]1 [MLS-0315685.0001]
IC50: 1.27 µM

O=C1c2c(Cl)c(Cl)c(Cl)c(Cl)c2C(=O)N1c1nc(Cc2ccccc2)n[nH]1 [MLS-0146263.0001]
IC50: > 100 µM

CCc1nccn1CC(=O)c1ccc(O)c(O)c1 [1-(3,4-dihydroxyphenyl)-2-(2-ethyl-1-imidazolyl)ethanone;hydrochloride]
IC50: > 100 µM

O=C(Cn1cnc2ccccc21)c1ccc(O)c(O)c1 [2-(1-benzimidazolyl)-1-(3,4-dihydroxyphenyl)ethanone;hydrochloride]
IC50: 14.8 µM

O=C1c2ccccc2C(=O)N1c1nnc[nH]1 [2-(1H-1,2,4-triazol-5-yl)isoindole-1,3-dione]
IC50: > 100 µM

Cc1cnn(CC(=O)c2ccc(O)c(O)c2)c1 [1-(3,4-dihydroxyphenyl)-2-(4-methyl-1H-pyrazol-1-yl)ethanone]
IC50: 53.3 µM

O=C(CSc1nnc(-c2ccccc2)[nH]1)c1ccc(O)cc1O [1-[2,4-bis(oxidanyl)phenyl]-2-[(5-phenyl-1H-1,2,4-triazol-3-yl)sulfanyl]ethanone]
IC50: > 100 µM

CCOC(=O)c1cc(-c2ccc(Cl)cc2)n[nH]1 [MLS-0111582.0001]
IC50: > 100 µM

COC(=O)c1cc(-c2ccccc2)n[nH]1 [methyl 3-phenyl-1H-pyrazole-5-carboxylate]
IC50: > 100 µM

O=C(CSc1nnc(-c2ccccc2Cl)[nH]1)c1ccc(O)c(O)c1 [1-[3,4-bis(oxidanyl)phenyl]-2-[[5-(2-chlorophenyl)-1H-1,2,4-triazol-3-yl]sulfanyl]ethanone]
IC50: > 100 µM

O=C(Cn1ccnc1)c1ccc(O)c(O)c1 [1-(3,4-dihydroxyphenyl)-2-(1-imidazolyl)ethanone;hydrochloride]
IC50: 30.2 µM and 18.5 µM

CCOc1ccc(Cl)cc1S(=O)(=O)Nc1cccnc1 [5-chloro-2-ethoxy-N-(pyridin-3-yl)benzenesulfonamide]
IC50: > 100 µM

COC(=O)c1cc(-c2ccc(Cl)cc2Cl)n[nH]1
IC50: > 100 µM

COC(=O)c1cc(-c2ccc(OC)cc2)[nH]n1 [MLS-0091975.0001]
IC50: > 100 µM

O=C1Nc2ccccc2C1C=NCCc1ccc(O)c(O)c1 (configuration not stated) [(3E)-3-[[2-(3,4-dihydroxyphenyl)ethylamino]methylene]oxindole]
IC50: 9.95 µM

COc1cc(C)c(Cl)cc1S(=O)(=O)Nc1cccnc1 [5-chloro-2-methoxy-4-methyl-N-(pyridin-3-yl)benzenesulfonamide]
IC50: > 100 µM

O=C(c1[nH]nc2c1COc1ccccc1-2)N1CCCC1 [(2,4-dihydrochromeno[4,3-c]pyrazol-3-yl)(pyrrolidin-1-yl)methanone]
IC50: > 100 µM

Cc1cc(C)nc(SCC(=O)c2ccc(O)c(O)c2)n1 [1-(3,4-dihydroxyphenyl)-2-(4,6-dimethylpyrimidin-2-ylthio)ethanone]
IC50: 49.5 µM

O=C(O)c1cc(-c2ccccc2Cl)n[nH]1 [3-(2-chlorophenyl)-1H-pyrazole-5-carboxylic acid]
IC50: 43.4 µM

Cc1nc2ccccc2n1CC(=O)c1ccc(O)c(O)c1 [1-(3,4-dihydroxyphenyl)-2-(2-methyl-1-benzimidazolyl)ethanone;hydrochloride]
IC50: > 100 µM

O=C(O)c1ccc2c(c1)C(=O)N(c1nc(-c3cccnc3)n[nH]1)C2=O [1,3-dioxo-2-(5-pyridin-3-yl-1H-1,2,4-triazol-3-yl)isoindole-5-carboxylic acid]
IC50: 40.7 µM

COc1ccc(OC)c(S(=O)(=O)Nc2cccnc2)c1 [2,5-Dimethoxy-N-(pyridin-3-yl)benzenesulfonamide]
IC50: > 100 µM

COc1ccc(-n2nnnc2SCC(=O)c2ccc(O)c(O)c2)cc1 [1-(3,4-dihydroxyphenyl)-2-(1-(4-methoxyphenyl)-1H-tetrazol-5-ylthio)ethanone]
IC50: 4.35 µM

COc1ccc(OC)c(S(=O)(=O)Nc2cnc3ccccc3c2)c1
IC50: > 100 µM

COc1ccc(-c2[nH]nc3oc(=O)cc(C)c23)cc1
IC50: > 100 µM

Cn1nc(-c2ccc(F)cc2)cc1C(=O)O [5-(4-fluorophenyl)-2-methyl-3-pyrazolecarboxylic acid]
IC50: > 100 µM
